# Source: patent US20090075916A1, “Use of Macrolide Derivatives for Treating Acne” (priority 2005, published 2009)
# How the values were obtained:
# Assay in all cases: MIC, agar dilution (NCCLS M11-A5), anaerobic
# [1] = test system: sensitive P. acnes isolates (Propionibacterium acnes 6523, ATCC 6919, clinical isolate, I and II); format: cell-based; details: Cutibacterium acnes, sensitive P. acnes isolates: 6523, ATCC 6919, clinical isolate, 48 hours anaerobic
# [2] = test system: resistant P. acnes (NDDR I and II) isolates; format: cell-based, Propionibacterium acnes; details: Cutibacterium acnes
# [3] = test system: All the P. acnes isolate; format: cell-based, Propionibacterium acnes
Compound,MIC [1] [µg/mL],MIC [2] [µg/mL],susceptibility of P. acnes isolates (in words) [3]
CC[C@H]1OC(=O)[C@H](C)[C@@H](O[C@H]2C[C@@](C)(OC)[C@@H](O)[C@H](C)O2)[C@H](C)[C@@H](O[C@@H]2O[C@H](C)C[C@H](N(C)C)[C@H]2O)[C@](C)(OC)C[C@@H](C)C(=O)[C@H](C)[C@@H](O)[C@]1(C)O [Clarithromycin],0.06 to 0.5,> 16,–
CC[C@H]1OC(=O)[C@H](C)C(=O)[C@H](C)[C@@H](O[C@@H]2O[C@H](C)C[C@H](N(C)C)[C@H]2O)[C@](C)(OC)C[C@@H](C)C(=O)[C@H](C)[C@H]2N(CCCCn3cnc(-c4cccnc4)c3)C(=O)O[C@]12C [Telithromycin],–,2,–
Cc1ncc([N+](=O)[O-])n1CCO [metronidazole],–,–,resistance

# Further lines, with some results ahead:
MIC [1] [µg/mL],MIC [2] [µg/mL],Compound,susceptibility of P. acnes isolates (in words) [3]
0.06 to 0.5,> 16,CC[C@H]1OC(=O)[C@H](C)[C@@H](O[C@H]2C[C@@](C)(OC)[C@@H](O)[C@H](C)O2)[C@H](C)[C@@H](O[C@@H]2O[C@H](C)C[C@H](N(C)C)[C@H]2O)[C@](C)(O)C[C@@H](C)CN(C)[C@H](C)[C@@H](O)[C@]1(C)O [Azithromycin],–
0.25,16,CCC[C@@H]1C[C@@H](C(=O)N[C@@H]([C@H]2O[C@H](SC)[C@H](O)[C@@H](O)[C@H]2O)[C@H](C)Cl)N(C)C1 [Clindamycin],–
0.06 to 0.5,> 16,CC[C@H]1OC(=O)[C@H](C)[C@@H](O[C@H]2C[C@@](C)(OC)[C@@H](O)[C@H](C)O2)[C@H](C)[C@@H](O[C@@H]2O[C@H](C)C[C@H](N(C)C)[C@H]2O)[C@](C)(O)C[C@@H](C)C(=O)[C@H](C)[C@@H](O)[C@]1(C)O [Erythromycin],–
